Assay: mn = molality of the nth substance listed, in mol/kg
Settings: 100 kPa, Liquid, Vibrating tube method

[Cl-].[Na+] [sodium chloride] + O
mass density [kg/m3]
Settings | m1 = 0.1 | m1 = 0.2 | m1 = 0.3 | m1 = 0.4 | m1 = 0.5 | m1 = 0.6
293.15 K | 1002.42 | 1006.57 | 1010.63 | 1014.73 | 1018.78 | 1022.6
298.15 K | 1001.21 | 1005.31 | 1009.33 | 1013.38 | – | 1021.15
303.15 K | 999.767 | 1003.83 | 1007.8 | 1011.82 | 1015.77 | –
308.15 K | 998.116 | 1002.14 | 1006.08 | 1010.07 | – | 1017.71
313.15 K | 996.272 | 1000.27 | 1004.18 | 1008.14 | 1012.04 | 1015.73
